# Tests used:
# [1] = system: HIV coding for mutant reverse transcriptase Y188L; experiment: ELISA (p24) assay of HIV replication in C8166 cell culture, Y188L virus; assay type: cell-based, HIV-1; settings: Human immunodeficiency virus 1, C8166, 72 h, read-out: EC50 Y188L
# Method: (§1) Compounds of the invention were tested for their ability to inhibit HIV replication in cell culture in a 96-well plate assay. Complete RPMI 1640, consisting of RPMI 1640+10% fetal bovine serum, 10 μg/ml gentamycin and 10 μM β-mercaptoethanol was used for dilution of the compound as well as cell growth medium. The T lymphocyte cell line C8166 was infected at a multiplicity of infection of 0.001 with viruses coding for wild-type and mutant reverse transcriptase. Cells were then incubated for three days in the presence of serial dilutions of the compounds of the invention. The supernatant was pooled from eight replica wells and the concentration of extracellular p24 was determined using a commercially available HIV-1 p24 antigen assay kit (Beckman-Coulter®). The level of inhibition (% inhibition) was calculated with the following equation: [formula]
# [2] = system: HIV coding for mutant reverse transcriptase V106A; experiment: ELISA (p24) assay of HIV replication in C8166 cell culture, V106A virus; assay type: cell-based, HIV-1; settings: Human immunodeficiency virus 1, C8166, 72 h, read-out: EC50 V106A
# Method: as §1
# HIV-1 RT Y181C = biological target: T1, HIV-1 RT Y181C (Human immunodeficiency virus type 1 group M subtype B, UniProt P03366, Y780C); experiment: Reverse transcriptase (RT) assay, Y181C mutant; assay type: biochemical
# T1 construct: an HIV RT clone pKRT2 containing only the RT p66 gene regulated by the lac operon/trc promoter; made in house; host or cells: E. coli JM109, vector pKK233-2
# Procedure, shortened: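 First, RT mutants were generated by site-directed mutagenesis of the BH10 p66 gene, expressed in E. coli and purified as p66/p51 heterodimer. Then compounds were tested for inhibition of DNA synthesis on biotinylated oligo d(G)-primed poly r(C), with 3H-dGTP supplying label.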
SMILES,EC50 [1] [nM],EC50 [2] [nM],IC50 (HIV-1 RT Y181C) [nM]
"CCN1c2ncc(CCOc3cc[n+]([O-])c4ccccc34)cc2C(=O)N(C)c2cccnc21 [compound 21, 5,11-Dihydro-11-ethyl-5-methyl-8-{2-{(1-oxido-4-quinolinyl)oxy}ethyl}-6H-dipyrido[3,2-b:2′,3′-e][1,4]diazepin-6-one]",67,65,51
"CCN1c2ncc(CCOc3cc[n+]([O-])c4ccccc34)cc2C(=O)N(C)c2ccc(Cl)nc21 [compound 17, 2-Chloro-5,11-dihydro-11-ethyl-5-methyl-8-{2-{(1-oxido-4-quinolinyl)oxy}-ethyl}-6H-dipyrido[3,2-b:2′,3′-e][1,4]diazepin-6-one]",58,24,29
"CCN1c2ncc(CCOc3cc[n+]([O-])c4ccccc34)cc2C(=O)N(C)c2ccc(F)nc21 [compound 11, 5,11-Dihydro-11-ethyl-2-fluoro-5-methyl-8-{2-{(1-oxido-4-quinolinyl)oxy}-ethyl}-6H-dipyrido[3,2-b:2′,3′-e][1,4]diazepin-6-one]",52,28,27

# — patent US20020028807A1, “Non-nucleoside reverse transcriptase inhibitors” (priority 2000, published 2002)
